Experimental findings from ChEMBL document CHEMBL2074533, “OATP1B1, OATP1B3, and mrp2 are involved in hepatobiliary transport of olmesartan, a novel angiotensin II blocker” (Drug Metab Dispos, 2006) are described below.

In series [1] the target is ATP-binding cassette sub-family C member 2 (Rattus norvegicus, UniProt Q63120). The series can be described thus: TP_TRANSPORTER: biliary excretion in EHBR rat. Type of series: functional, organism-based, Bile. Particulars: in vivo.
For the next series, the target named is T1, OATP1B3 (Homo sapiens, UniProt Q9NPD5).
T1 sequence (Q9NPD5 whole entry): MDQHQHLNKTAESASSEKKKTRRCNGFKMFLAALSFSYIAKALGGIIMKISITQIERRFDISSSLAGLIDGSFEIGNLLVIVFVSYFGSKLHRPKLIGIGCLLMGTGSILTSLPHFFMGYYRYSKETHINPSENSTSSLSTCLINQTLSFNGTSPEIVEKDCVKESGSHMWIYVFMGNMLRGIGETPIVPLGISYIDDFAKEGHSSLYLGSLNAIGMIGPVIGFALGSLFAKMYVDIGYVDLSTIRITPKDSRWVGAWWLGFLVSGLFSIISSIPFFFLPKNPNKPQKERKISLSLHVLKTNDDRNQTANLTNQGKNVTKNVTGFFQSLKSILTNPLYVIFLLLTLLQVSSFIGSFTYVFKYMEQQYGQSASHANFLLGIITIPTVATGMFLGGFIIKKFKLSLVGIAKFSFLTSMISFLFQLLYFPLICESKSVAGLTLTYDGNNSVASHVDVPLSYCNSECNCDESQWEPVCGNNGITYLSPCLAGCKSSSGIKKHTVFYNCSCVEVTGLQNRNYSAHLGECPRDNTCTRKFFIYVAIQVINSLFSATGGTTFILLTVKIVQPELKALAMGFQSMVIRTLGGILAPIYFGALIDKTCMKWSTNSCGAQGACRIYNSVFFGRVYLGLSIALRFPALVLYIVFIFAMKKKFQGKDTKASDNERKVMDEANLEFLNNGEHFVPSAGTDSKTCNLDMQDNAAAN
Nature of the series: TP_TRANSPORTER: transport in OATP1B3-expressing oocytes. Type of series: functional, cell-based, Oocyte.

Series [2] deals with T2, ATP-binding cassette sub-family C member 2 (Homo sapiens, UniProt Q92887). The series can be described thus: TP_TRANSPORTER: transport in hCMV cells. Type of series: functional, cell membranes, Canalicular membrane vesicle.
In series [3] the target is T2, ATP-binding cassette sub-family C member 2. The series can be described thus: TP_TRANSPORTER: transport in MRP2-expressing vesicles. It is filed as functional, subcellular.
For series [4], the target named is T3, Hepatic sodium/bile acid cotransporter (Homo sapiens, UniProt Q14973).
T3 sequence (Q14973 whole entry): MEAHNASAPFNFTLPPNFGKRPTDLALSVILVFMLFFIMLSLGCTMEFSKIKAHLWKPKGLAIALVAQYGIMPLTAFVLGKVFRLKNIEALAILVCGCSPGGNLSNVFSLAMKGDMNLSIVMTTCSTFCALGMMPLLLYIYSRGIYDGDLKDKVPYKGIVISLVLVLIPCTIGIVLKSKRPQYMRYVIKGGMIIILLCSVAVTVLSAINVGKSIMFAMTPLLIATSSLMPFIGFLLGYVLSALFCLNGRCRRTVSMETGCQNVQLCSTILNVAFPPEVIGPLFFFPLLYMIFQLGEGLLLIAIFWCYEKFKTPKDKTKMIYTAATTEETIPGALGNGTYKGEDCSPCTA
The series can be described thus: TP_TRANSPORTER: transport in NTCP-transfected HEK-293 cells. It is filed as functional, cell-based. The note with it: hek293.

Substrate in series [5]: CCCc1nc(C(C)(C)O)c(C(=O)O)n1Cc1ccc(-c2ccccc2-c2nnn[nH]2)cc1
Nature of the series: TP_TRANSPORTER: transport in OATP1B1-expressing oocytes. It is filed as functional, cell-based, Oocyte.

T2 sequence (Q92887 whole entry): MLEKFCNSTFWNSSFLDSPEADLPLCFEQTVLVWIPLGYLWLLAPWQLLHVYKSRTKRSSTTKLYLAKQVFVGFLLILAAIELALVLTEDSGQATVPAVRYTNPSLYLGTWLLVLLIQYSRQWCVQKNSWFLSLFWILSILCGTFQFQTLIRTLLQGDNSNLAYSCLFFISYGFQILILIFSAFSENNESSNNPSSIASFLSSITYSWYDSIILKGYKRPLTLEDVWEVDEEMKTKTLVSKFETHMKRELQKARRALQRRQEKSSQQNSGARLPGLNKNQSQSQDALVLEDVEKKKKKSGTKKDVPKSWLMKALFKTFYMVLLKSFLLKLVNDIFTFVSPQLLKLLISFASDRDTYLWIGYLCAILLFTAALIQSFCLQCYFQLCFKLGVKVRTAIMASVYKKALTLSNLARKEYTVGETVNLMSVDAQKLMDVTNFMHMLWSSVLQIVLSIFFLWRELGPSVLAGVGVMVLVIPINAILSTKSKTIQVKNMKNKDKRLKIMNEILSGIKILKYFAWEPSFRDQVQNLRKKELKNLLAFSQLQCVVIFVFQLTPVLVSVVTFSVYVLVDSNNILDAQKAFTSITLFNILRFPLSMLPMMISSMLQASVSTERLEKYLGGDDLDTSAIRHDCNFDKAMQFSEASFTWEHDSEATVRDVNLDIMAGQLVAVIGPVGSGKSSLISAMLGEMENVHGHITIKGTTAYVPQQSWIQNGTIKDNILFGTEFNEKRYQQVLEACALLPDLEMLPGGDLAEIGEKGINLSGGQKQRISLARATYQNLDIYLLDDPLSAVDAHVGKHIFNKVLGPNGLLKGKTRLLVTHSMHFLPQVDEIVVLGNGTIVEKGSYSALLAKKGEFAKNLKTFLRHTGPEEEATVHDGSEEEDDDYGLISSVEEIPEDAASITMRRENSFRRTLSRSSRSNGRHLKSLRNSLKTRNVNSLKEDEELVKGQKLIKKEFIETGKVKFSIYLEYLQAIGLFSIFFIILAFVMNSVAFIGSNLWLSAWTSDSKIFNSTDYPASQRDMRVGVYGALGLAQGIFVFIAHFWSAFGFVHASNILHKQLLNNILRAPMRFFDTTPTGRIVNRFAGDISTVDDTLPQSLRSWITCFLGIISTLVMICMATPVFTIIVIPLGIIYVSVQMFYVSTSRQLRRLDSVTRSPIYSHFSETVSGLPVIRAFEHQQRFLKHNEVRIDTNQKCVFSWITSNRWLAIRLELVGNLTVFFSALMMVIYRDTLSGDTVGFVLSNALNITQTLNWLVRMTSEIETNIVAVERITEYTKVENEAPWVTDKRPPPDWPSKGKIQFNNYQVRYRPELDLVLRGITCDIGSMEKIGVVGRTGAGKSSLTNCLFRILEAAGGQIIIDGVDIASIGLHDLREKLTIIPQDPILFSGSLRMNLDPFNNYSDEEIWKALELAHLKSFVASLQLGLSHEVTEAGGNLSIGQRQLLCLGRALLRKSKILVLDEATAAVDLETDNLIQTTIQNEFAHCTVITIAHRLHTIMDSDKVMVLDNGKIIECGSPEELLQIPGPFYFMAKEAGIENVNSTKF
Sequence of ATP-binding cassette sub-family C member 2 (Rattus norvegicus, UniProt Q63120) (Q63120 whole entry): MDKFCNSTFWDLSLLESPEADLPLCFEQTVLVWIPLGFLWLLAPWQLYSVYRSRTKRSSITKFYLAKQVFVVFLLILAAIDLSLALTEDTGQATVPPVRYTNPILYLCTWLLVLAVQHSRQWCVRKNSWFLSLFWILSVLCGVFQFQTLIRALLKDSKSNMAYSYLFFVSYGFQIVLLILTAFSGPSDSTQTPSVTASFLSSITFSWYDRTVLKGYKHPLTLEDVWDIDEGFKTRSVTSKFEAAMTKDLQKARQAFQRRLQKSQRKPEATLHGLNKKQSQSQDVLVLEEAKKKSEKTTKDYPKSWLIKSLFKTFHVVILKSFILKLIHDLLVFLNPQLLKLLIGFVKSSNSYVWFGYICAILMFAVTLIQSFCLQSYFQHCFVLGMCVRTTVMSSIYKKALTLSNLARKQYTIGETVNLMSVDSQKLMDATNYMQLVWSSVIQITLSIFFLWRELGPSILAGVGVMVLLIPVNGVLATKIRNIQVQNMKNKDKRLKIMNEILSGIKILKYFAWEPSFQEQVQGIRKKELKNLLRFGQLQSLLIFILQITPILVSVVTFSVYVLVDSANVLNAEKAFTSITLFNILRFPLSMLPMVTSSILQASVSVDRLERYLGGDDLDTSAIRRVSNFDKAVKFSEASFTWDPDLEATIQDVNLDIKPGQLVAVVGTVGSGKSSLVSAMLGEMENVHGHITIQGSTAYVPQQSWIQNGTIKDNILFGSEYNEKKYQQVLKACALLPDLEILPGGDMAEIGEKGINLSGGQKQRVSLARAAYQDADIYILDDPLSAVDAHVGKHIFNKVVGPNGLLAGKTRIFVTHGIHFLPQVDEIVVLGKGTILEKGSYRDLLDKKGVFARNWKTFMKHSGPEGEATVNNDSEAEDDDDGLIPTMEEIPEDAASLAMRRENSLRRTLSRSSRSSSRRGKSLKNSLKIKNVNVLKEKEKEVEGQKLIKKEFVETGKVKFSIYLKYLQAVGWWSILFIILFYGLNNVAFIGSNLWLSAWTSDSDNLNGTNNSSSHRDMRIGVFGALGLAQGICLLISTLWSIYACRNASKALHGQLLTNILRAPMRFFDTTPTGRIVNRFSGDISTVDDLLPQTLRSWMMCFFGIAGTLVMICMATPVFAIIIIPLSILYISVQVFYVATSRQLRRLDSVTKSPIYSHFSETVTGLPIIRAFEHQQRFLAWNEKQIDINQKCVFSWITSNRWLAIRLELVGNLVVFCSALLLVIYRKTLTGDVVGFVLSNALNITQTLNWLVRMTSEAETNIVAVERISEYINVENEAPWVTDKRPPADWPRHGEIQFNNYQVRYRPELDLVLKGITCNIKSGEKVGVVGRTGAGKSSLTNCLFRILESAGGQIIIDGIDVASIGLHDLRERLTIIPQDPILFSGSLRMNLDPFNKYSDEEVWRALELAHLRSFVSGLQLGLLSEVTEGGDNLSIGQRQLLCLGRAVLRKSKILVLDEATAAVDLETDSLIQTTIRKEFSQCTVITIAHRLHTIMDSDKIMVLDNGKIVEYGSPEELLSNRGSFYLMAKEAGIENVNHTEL

By Km is commonly meant the substrate concentration at which the rate is half of its maximum. For the molecule `CCCc1nc(C(C)(C)O)c(C(=O)O)n1Cc1ccc(-c2ccccc2-c2nnn[nH]2)cc1` [OLMESARTAN], the Activity result in series [1] was “substrate [+]”; in series [2], “substrate [+]”; in series [3], “substrate [+]”; in series [4] it was “is not a substrate [-]”. At OATP1B3, the Michaelis-Menten constant (Km) came to 71.8 µM.

B1: Solute carrier organic anion transporter family member 1B1 (Homo sapiens) (protein)
chain: MDQNQHLNKTAEAQPSENKKTRYCNGLKMFLAALSLSFIAKTLGAIIMKSSIIHIERRFEISSSLVGFIDGSFEIGNLLVIVFVSYFGSKLHRPKLIGIGCFIMGIGGVLTALPHFFMGYYRYSKETNINSSENSTSTLSTCLINQILSLNRASPEIVGKGCLKESGSYMWIYVFMGNMLRGIGETPIVPLGLSYIDDFAKEGHSSLYLGILNAIAMIGPIIGFTLGSLFSKMYVDIGYVDLSTIRITPTDSRWVGAWWLNFLVSGLFSIISSIPFFFLPQTPNKPQKERKASLSLHVLETNDEKDQTANLTNQGKNITKNVTGFFQSFKSILTNPLYVMFVLLTLLQVSSYIGAFTYVFKYVEQQYGQPSSKANILLGVITIPIFASGMFLGGYIIKKFKLNTVGIAKFSCFTAVMSLSFYLLYFFILCENKSVAGLTMTYDGNNPVTSHRDVPLSYCNSDCNCDESQWEPVCGNNGITYISPCLAGCKSSSGNKKPIVFYNCSCLEVTGLQNRNYSAHLGECPRDDACTRKFYFFVAIQVLNLFFSALGGTSHVMLIVKIVQPELKSLALGFHSMVIRALGGILAPIYFGALIDTTCIKWSTNNCGTRGSCRTYNSTSFSRVYLGLSSMLRVSSLVLYIILIYAMKKKYQEKDINASENGSVMDEANLESLNKNKHFVPSAGADSETHC
For B1, in series [5], the Michaelis constant (Km) worked out at 42.6 µM.
